US20250034210A1, “DLL3 TARGETING PEPTIDES AND CONSTRUCTS THEREOF” (MARIANA ONCOLOGY INC., priority 2023, published 2025)
Where a SMILES comes first, the peptide text is derived from it. Bridges are numbered along the chain shown (N, C = ends). [ ]: non-standard residue; d: D form. The star is where a group is joined. DOTA = O=C(O)CN1CCN(CC(=O)O)CCN(CC(=O)*)CCN(CC(=O)O)CC1; Trp(5-F) = N[C@@H](Cc1c[nH]c2ccc(F)cc12)C(=O)O; Phe(2-CF3) = N[C@@H](Cc1ccccc1C(F)(F)F)C(=O)O; Pro(trans-4-F) = O=C(O)[C@@H]1C[C@@H](F)CN1; Pro(cis-4-F) = O=C(O)[C@@H]1C[C@H](F)CN1; Ahx = NCCCCCC(=O)O

target: T1, human DLL3 (Homo sapiens, UniProt Q9NYJ7); assay: Affinity determination by Surface Plasmon Resonance (SPR), biotinylated human DLL3 immobilized on streptavidin sensor chip; conditions: 25° C., Biacore, 1:1 binding model
T1 construct: biotin (biotinylated)
T1 sequence (Q9NYJ7 27-618): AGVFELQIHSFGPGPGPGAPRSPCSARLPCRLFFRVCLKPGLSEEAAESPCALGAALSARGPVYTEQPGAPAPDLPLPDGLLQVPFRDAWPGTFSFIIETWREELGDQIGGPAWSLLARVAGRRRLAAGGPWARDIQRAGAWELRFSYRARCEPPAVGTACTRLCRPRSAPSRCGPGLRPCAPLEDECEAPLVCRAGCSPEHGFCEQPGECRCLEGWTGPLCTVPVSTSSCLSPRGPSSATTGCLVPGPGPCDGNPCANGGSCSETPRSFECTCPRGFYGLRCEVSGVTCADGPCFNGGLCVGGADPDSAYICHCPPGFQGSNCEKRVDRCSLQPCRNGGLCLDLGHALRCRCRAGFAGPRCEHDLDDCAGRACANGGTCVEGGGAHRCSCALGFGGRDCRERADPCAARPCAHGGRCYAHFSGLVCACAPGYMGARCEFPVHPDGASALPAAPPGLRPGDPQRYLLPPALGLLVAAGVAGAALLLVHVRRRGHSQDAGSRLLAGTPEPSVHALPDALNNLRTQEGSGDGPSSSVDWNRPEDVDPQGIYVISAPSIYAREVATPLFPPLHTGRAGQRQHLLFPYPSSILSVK
Protocol: Affinity Determination by Surface Plasmon Resonance (SPR). SPR studies were performed on the compounds disclosed herein using the following protocol.
The binding affinity and binding kinetic parameters at 25° C. were determined using Biacore S200 or biacore 8K instrument. Biotinylated target ligand human DLL3 was immobilized on a streptavidin sensor chip. A reference surface was set up for nonspecific binding and refractive index changes. For analysis of the kinetics of interactions, varying concentrations of samples were injected at a flow rate of 100 μL/min using running buffer containing 20 mM phosphate buffer with 2.7 mM KCl, 137 mM NaCl, 0.05% Surfactant P20 and 2% DMSO. Sensorgram curves were fitted with 1:1 binding model, and affinity and kinetic parameters were obtained using Biacore Insight evaluation 4.0. software.

Row | Kd | SMILES
1 | 10 to 100 nM | CC[C@H](C)[C@H](NC(=O)[C@@H](NC(=O)[C@H](Cc1c[nH]c2ccccc12)NC(=O)CCCCCNC(=O)CN1CCN(CC(=O)O)CCN(CC(=O)O)CCN(CC(=O)O)CC1)[C@@H](C)O)C(=O)N[C@H]1CSSC[C@@H](C(=O)N[C@@H](Cc2c[nH]c3ccccc23)C(=O)N2CCC[C@H]2C(N)=O)NC(=O)[C@H](CC(=O)O)NC(=O)[C@H](Cc2cnc[nH]2)NC(=O)[C@H](Cc2c[nH]c3ccc(F)cc23)NC(=O)[C@H](CC(N)=O)NC(=O)[C@H](CC(N)=O)NC1=O [compound 59, DOTA-Ahx-W-T-I-C(3)-N-N-(5Fluoro-W)-H-D-C(3)-W-P-CONH2] ({DOTA-Ahx}-WTICNN[Trp(5-F)]HDCWP-NH2; disulfide 4-10)
2 | 10 to 100 nM | CC[C@H](C)[C@H](NC(=O)[C@@H](NC(=O)[C@H](Cc1c[nH]c2ccccc12)NC(=O)CCCCCNC(=O)CN1CCN(CC(=O)O)CCN(CC(=O)O)CCN(CC(=O)O)CC1)[C@@H](C)O)C(=O)N[C@H]1CSSC[C@@H](C(=O)N[C@@H](Cc2c[nH]c3ccc(F)cc23)C(=O)N2CCC[C@H]2C(N)=O)NC(=O)[C@H](CC(=O)O)NC(=O)[C@H](Cc2cnc[nH]2)NC(=O)[C@H](Cc2c[nH]c3ccccc23)NC(=O)[C@H](CC(N)=O)NC(=O)[C@H](CC(N)=O)NC1=O [compound 60, DOTA-Ahx-W-T-I-C(3)-N-N-W-H-D-C(3)-(5Fluoro-W)-P-CONH2] ({DOTA-Ahx}-WTICNNWHDC[Trp(5-F)]P-NH2; disulfide 4-10)
3 | 1 to 10 nM | C[C@@H](O)[C@H](NC(=O)[C@H](Cc1c[nH]c2ccccc12)NC(=O)CCCCCNC(=O)CN1CCN(CC(=O)O)CCN(CC(=O)O)CCN(CC(=O)O)CC1)C(=O)N[C@@H](Cc1ccccc1C(F)(F)F)C(=O)N[C@H]1CSSC[C@@H](C(=O)N[C@@H](Cc2c[nH]c3ccccc23)C(=O)N2CCC[C@H]2C(N)=O)NC(=O)[C@H](CC(=O)O)NC(=O)[C@H](Cc2cnc[nH]2)NC(=O)[C@H](Cc2c[nH]c3ccccc23)NC(=O)[C@H](CC(N)=O)NC(=O)[C@H](CC(N)=O)NC1=O [compound 65, DOTA-Ahx-W-T-(2CF3-F)-C(3)-N-N-W-H-D-C(3)-W-P-CONH2] ({DOTA-Ahx}-WT[Phe(2-CF3)]CNNWHDCWP-NH2; disulfide 4-10)
4 | 1 to 10 nM | CC[C@H](C)[C@H](NC(=O)[C@@H](NC(=O)[C@H](Cc1c[nH]c2ccccc12)NC(=O)CCCCCNC(=O)CN1CCN(CC(=O)O)CCN(CC(=O)O)CCN(CC(=O)O)CC1)[C@@H](C)O)C(=O)N[C@H]1CSSC[C@@H](C(=O)N[C@@H](Cc2c[nH]c3ccccc23)C(=O)N2C[C@H](F)C[C@H]2C(N)=O)NC(=O)[C@H](CC(=O)O)NC(=O)[C@H](Cc2cnc[nH]2)NC(=O)[C@H](Cc2c[nH]c3ccccc23)NC(=O)[C@H](CC(N)=O)NC(=O)[C@H](CC(N)=O)NC1=O [compound 66, DOTA-Ahx-W-T-I-C(3)-N-N-W-H-D-C(3)-W-(trans4Fluoro-P)-CONH2] ({DOTA-Ahx}-WTICNNWHDCW[Pro(trans-4-F)]-NH2; disulfide 4-10)
5 | 100 to 300 nM | CC[C@H](C)[C@H](NC(=O)[C@@H](NC(=O)[C@H](Cc1c[nH]c2ccccc12)NC(=O)CCCCCNC(=O)CN1CCN(CC(=O)O)CCN(CC(=O)O)CCN(CC(=O)O)CC1)[C@@H](C)O)C(=O)N[C@H]1CSSC[C@@H](C(=O)N[C@@H](Cc2c[nH]c3ccccc23)C(=O)N2C[C@@H](F)C[C@H]2C(N)=O)NC(=O)[C@H](CC(=O)O)NC(=O)[C@H](Cc2cnc[nH]2)NC(=O)[C@H](Cc2c[nH]c3ccccc23)NC(=O)[C@H](CC(N)=O)NC(=O)[C@H](CC(N)=O)NC1=O [compound 67, DOTA-Ahx-W-T-I-C(3)-N-N-W-H-D-C(3)-W-(Cis4Fluoro-P)-CONH2] ({DOTA-Ahx}-WTICNNWHDCW[Pro(cis-4-F)]-NH2; disulfide 4-10)
